From patent US20260297092A1, “PYRAZOLOPYRIMIDINE DERIVATIVES AS INHIBITORS OF NLRP3” (Takeda Pharmaceutical Company Limited, priority 2023, published 2026)
pIC50: −log10 of the molar value.

Legend:
[1] = test system: TNF-α (NF-κB pathway, THP-1 cells); assay: TNF-α Assay (IC50); type: cell-based, human; details: 600 ng/mL LPS, 3 hours
Procedure: TNF-α Assay (Reported as IC50)
Monocytic THP-1 cells (ATCC: TIB-202) were maintained in accordance with the provider's instructions in RPMI media (Life Technologies, Cat #A10491-01); RPMI was supplemented with 10% heat inactivated fetal bovine serum (Hyclone Cat #SH30396.03). The cells were differentiated into macrophages by the addition of 25 ng/mL IFN-7 for 24 hours at 37° C./5% CO2. Media was exchanged with fresh media with no FBS. The cells were plated at 40,000 cells per well in 384-well flat-bottom cell culture plates (Costar 3764) containing compounds (added in 1:1000) in a 1:3.16 serial dilution series in DMSO and were incubated for 30 minutes at 37° C./5% CO2. The NF-κB pathway was activated with the addition of 600 ng/mL LPS and the cells were incubated for 3 hours at 37° C./5% CO2. At the end of the incubation period, supernatant ([…]) was removed, and TNF-alpha were monitored using an ELISA (Human TNF-α ELISA, R&D systems, Cat #DY210) according to the manufacturer's instructions. 100% inhibition is determined with positive control, TPCA-1.
The IC50 values in the TNF-α assay were calculated from a plot of percentage of inhibition versus the inhibitor concentration by a logistics curve fit according to: Y=[Bottom+(Top−Bottom)]/(1+10^[(Log IC50−X)·Hill Slope], where Y was the […] at the inhibitor concentration, X, “Bottom” was the lowest inhibition value, i.e., 0%, “Top” was the maximum inhibition value, i.e., 100%, and the “Hill Slope” described the slope of the sigmoidal curve between the “Bottom” and “Top” values. The curve fitting was conducted with internally developed software.

[2] = test system: NLRP3 inflammasome (IL-1β production in THP-1 cells); assay: IL-1β TR-FRET Assay (percentage of inhibition at 300 nM, 6 μM or 10 μM); type: cell-based, human; details: LPS priming, ATP activation; for inhibition at 0.3 µM / inhibition at 6 µM: Homo sapiens; for inhibition at 0.3 µM: THP-1, 300 nM, read-out: IL-1β inhibitory rate at 300 nM (%); for inhibition at 6 µM: THP-1, 6 μM, read-out: IL-1β inhibitory rate at 6 μM (%)
How it was run: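 THP-1 cells were differentiated with 25 ng/mL IFN-γ for 24 h, primed with 50 ng/mL LPS in serum-free medium for 24 h, then given compound for 30 min before 20 mM ATP for 2 h. Supernatant IL-1β was measured by HTRF after 16-24 h at room temperature. Inhibition was normalized between DMSO (high) and 3 μM MCC-950 (low).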

Row | Compound | pIC50 ([1]; Homo sapiens) | inhibition at 0.3 µM [2] [%] | pIC50 [1] | IL-1β inhibitory rate at 300 nM (%) ([2]; 300 nM, 0.3 µM) | inhibition at 6 µM [2] [%]
1 | CCOc1nc2nn(-c3ccc(C)cc3O)c(CC)c2c(=O)[nH]1 [Example 140, 6-ethoxy-3-ethyl-2-(2-hydroxy-4-methylphenyl)-2,5-dihydro-4H-pyrazolo[3,4-d]pyrimidin-4-one] | < 4.52 | 93 |  |  | 
2 | Cc1cc(C)c(-n2cc3c(=O)[nH]c(-c4cccn(C)c4=O)nc3n2)c(O)c1 [Example 66, 2-(2-hydroxy-4,6-dimethylphenyl)-6-(1-methyl-2-oxo-1,2-dihydropyridin-3-yl)-2,5-dihydro-4H-pyrazolo[3,4-d]pyrimidin-4-one] | < 4.52 | 97 |  |  | 
3 | Cc1cc(C2CC2)cc(C)c1-n1cc2c(=O)[nH]c(C3CCCO3)nc2n1 (single isomer, unassigned) [Example 228, 2-(4-cyclopropyl-2,6-dimethylphenyl)-6-[(2S)-oxolan-2-yl]-2,5-dihydro-4H-pyrazolo[3,4-d]pyrimidin-4-one or 2-(4-cyclopropyl-2,6-dimethylphenyl)-6-[(2R)-oxolan-2-yl]-2,5-dihydro-4H-pyrazolo[3,4-d]pyrimidin-4-one (HPLC Method A: tR2)] |  |  | < 4.52 | 79 | 
4 | CCOc1cc(C)c(-n2cc3c(=O)[nH]c(OCC)nc3n2)c(F)c1 [Example 160, 6-ethoxy-2-(4-ethoxy-2-fluoro-6-methylphenyl)-2,5-dihydro-4H-pyrazolo[3,4-d]pyrimidin-4-one] | < 4.52 | 84 |  |  | 
5 | COCc1nc2nn(-c3c(C)cc(C)cc3O)cc2c(=O)n1C [Example 8, 2-(2-hydroxy-4,6-dimethylphenyl)-6-(methoxymethyl)-5-methyl-2,5-dihydro-4H-pyrazolo [3,4-d]pyrimidin-4-one] | < 4.52 | 92 |  |  | 
6 | CCOc1nc2nn(-c3c(F)cc(C)cc3CC(F)(F)F)cc2c(=O)[nH]1 [Example 134, 6-ethoxy-2-[2-fluoro-4-methyl-6-(2,2,2-trifluoroethyl)phenyl]-2,5-dihydro-4H-pyrazolo[3,4-d]pyrimidin-4-one] | < 4.52 | 96 |  |  | 
7 | COCCc1nc2nn(-c3c(F)cc(C4CC4)cc3C(F)F)cc2c(=O)[nH]1 [Example 300, 2-[4-cyclopropyl-2-(difluoromethyl)-6-fluorophenyl]-6-(2-methoxyethyl)-2,5-dihydro-4H-pyrazolo[3,4-d]pyrimidin-4-one] | < 4.52 |  |  |  | 99
8 | CCc1cc(C2CC2)cc(C)c1-n1cc2c(=O)[nH]c(COC(F)F)nc2n1 [Example 291, 2-(4-cyclopropyl-2-ethyl-6-methylphenyl)-6-[(difluoromethoxy)methyl]-2,5-dihydro-4H-pyrazolo[3,4-d]pyrimidin-4-one] | < 4.52 |  |  |  | 98
9 | CCOc1nc2nn(-c3c(C)ccc(C)c3O)cc2c(=O)[nH]1 [Example 16, 6-ethoxy-2-(2-hydroxy-3,6-dimethylphenyl)-2,5-dihydro-4H-pyrazolo[3,4-d]pyrimidin-4-one] | < 4.52 | 101 |  |  | 
10 | Cc1cc(C)c(-n2cc3c(=O)[nH]c(C4CCCO4)nc3n2)c(O)c1 (stereo not shown) [Example 29, 2-(2-hydroxy-4,6-dimethylphenyl)-6-(oxolan-2-yl)-2,5-dihydro-4H-pyrazolo[3,4-d]pyrimidin-4-one] | < 4.52 | 97 |  |  | 
11 | CCc1nc2nn(-c3c(C)cc(C4CC4)cc3C)cc2c(=O)[nH]1 [Example 241, 2-(4-cyclopropyl-2,6-dimethylphenyl)-6-ethyl-2,5-dihydro-4H-pyrazolo[3,4-d]pyrimidin-4-one] | < 4.52 |  |  |  | 101
12 | Cc1cc(C2CC2)cc(C)c1-n1cc2c(=O)[nH]c(OCC(F)F)nc2n1 [Example 285, 2-(4-cyclopropyl-2,6-dimethylphenyl)-6-(2,2-difluoroethoxy)-2,5-dihydro-4H-pyrazolo[3,4-d]pyrimidin-4-one] | < 4.52 |  |  |  | 100
13 | CCOc1nc2nn(-c3ncc(Br)cc3Br)cc2c(=O)[nH]1 [Example 161, 2-(3,5-dibromopyridin-2-yl)-6-ethoxy-2,5-dihydro-4H-pyrazolo[3,4-d]pyrimidin-4-one] | < 4.52 | 97 |  |  | 
14 | Cc1cc(C)c(-n2cc3c(=O)[nH]c(OCCCN(C)C)nc3n2)c(O)c1 [Example 115, 6-[3-(dimethylamino)propoxy]-2-(2-hydroxy-4,6-dimethylphenyl)-2,5-dihydro-4H-pyrazolo[3,4-d]pyrimidin-4-one] | < 4.52 | 99 |  |  | 
15 | Cc1cc(C)c(-n2cc3c(=O)[nH]c(OCC(F)(F)F)nc3n2)c(O)c1 [Example 55, 2-(2-hydroxy-4,6-dimethylphenyl)-6-(2,2,2-trifluoroethoxy)-2,5-dihydro-4H-pyrazolo[3,4-d]pyrimidin-4-one] | < 4.52 | 98 |  |  | 
16 | CCOc1nc2nn(-c3c(F)cc(C4CC4)cc3Br)cc2c(=O)[nH]1 [Example 114, 2-(2-bromo-4-cyclopropyl-6-fluorophenyl)-6-ethoxy-2,5-dihydro-4H-pyrazolo[3,4-d]pyrimidin-4-one] | < 4.52 | 98 |  |  | 
17 | Cc1ccc(C)c(-n2cc3c(=O)[nH]c(-c4ccncn4)nc3n2)c1O [Example 41, 2-(2-hydroxy-3,6-dimethylphenyl)-6-(pyrimidin-4-yl)-2,5-dihydro-4H-pyrazolo[3,4-d]pyrimidin-4-one] | < 4.52 | 99 |  |  | 
18 | O=c1[nH]c([C@@H]2COCCO2)nc2nn(-c3c(F)cc(C4CC4)cc3C(F)F)cc12 (single isomer, unassigned) [Example 313, 2-[4-cyclopropyl-2-(difluoromethyl)-6-fluorophenyl]-6-[(2S)-1,4-dioxan-2-yl]-2,5-dihydro-4H-pyrazolo[3,4-d]pyrimidin-4-one or 2-[4-cyclopropyl-2-(difluoromethyl)-6-fluorophenyl]-6-[(2R)-1,4-dioxan-2-yl]-2,5-dihydro-4H-pyrazolo[3,4-d]pyrimidin-4-one] | < 4.52 |  |  |  | 104
19 | Cc1ccc(-n2cc3c(=O)[nH]c(OC4CCC4)nc3n2)c(C)c1 [Example 87, 6-(cyclobutyloxy)-2-(2,4-dimethylphenyl)-2,5-dihydro-4H-pyrazolo[3,4-d]pyrimidin-4-one] | < 4.52 | 97 |  |  | 
20 | CCOc1nc2nn(-c3c(C)cc(C)cc3C)cc2c(=O)[nH]1 [Example 106, 6-ethoxy-2-(2,4,6-trimethylphenyl)-2,5-dihydro-4H-pyrazolo[3,4-d]pyrimidin-4-one] | < 4.52 | 97 |  |  | 
21 | Cc1ccc(-n2cc3c(=O)[nH]c(OCC(C)(F)F)nc3n2)c(O)c1 [Example 86, 6-(2,2-difluoropropoxy)-2-(2-hydroxy-4-methylphenyl)-2,5-dihydro-4H-pyrazolo[3,4-d]pyrimidin-4-one] | < 4.52 | 85 |  |  | 
22 | Cc1nc(-c2nc3nn(-c4c(F)cc(C5CC5)cc4C(F)F)cc3c(=O)[nH]2)co1 [Example 298, 2-[4-cyclopropyl-2-(difluoromethyl)-6-fluorophenyl]-6-(2-methyl-1,3-oxazol-4-yl)-2,5-dihydro-4H-pyrazolo[3,4-d]pyrimidin-4-one] | < 4.52 |  |  |  | 99
23 | CCOc1nc2nn(-c3c(C)cc(C4CC4)cc3C#N)cc2c(=O)[nH]1 [Example 179, 5-cyclo propyl-2-(6-ethoxy-4-oxo-4,5-dihydro-2H-pyrazolo[3,4-d]pyrimidin-2-yl)-3-methylbenzonitrile] | < 4.52 | 102 |  |  | 
24 | CCOc1nc2nn(-c3c(C)ccc(CC)c3O)cc2c(=O)[nH]1 [Example 72, 6-ethoxy-2-(3-ethyl-2-hydroxy-6-methylphenyl)-2,5-dihydro-4H-pyrazolo[3,4-d]pyrimidin-4-one] | < 4.52 | 94 |  |  | 
25 | COc1nc2nn(-c3c(C)cc(C4(F)CC4)cc3C)cc2c(=O)[nH]1 [Example 235, 2-[4-(1-fluorocyclopropyl)-2,6-dimethylphenyl]-6-methoxy-2,5-dihydro-4H-pyrazolo[3,4-d]pyrimidin-4-one] | < 4.52 |  |  |  | 105
26 | COc1nc2nn(-c3c(C)cc(C4(F)CC4)cc3F)cc2c(=O)[nH]1 [Example 208, 2-[2-fluoro-4-(1-fluorocyclopropyl)-6-methylphenyl]-6-methoxy-2,5-dihydro-4H-pyrazolo[3,4-d]pyrimidin-4-one] | < 4.52 | 102 |  |  | 
